{"source": "patent US7883723B2", "about": "“Water soluble chitosan nanoparticle for delivering an anticancer agent and preparing method thereof” (priority 2004, dated 2011)", "tested_on": "CT-26 mourine tumor cells", "conditions": "for survival rate of mice: FIG. 8", "method": "Female BALB/c mice (average weight: 20 g) were injected subcutaneously in the flank with CT-26 mourine tumor cells (5×10^4 cells/mouse). When the tumor was growing to the size of 3 mm×3 mm, the mice were divided into two groups; an experimental group and a control group. Each group was filled with 8 mice having a tumor and they were marked in their ears for the observation. 15 days after the transplantation, the administration (an intravenous injection) of drug and vehicle began. Each test drug was administered both with low dose of 2 mg/kg and with high dose of 10 mg/kg every three days four times total for 12 days. Only vehicle (cremophor:dehydrated ethyl alcohol, 1:1 v/v) was administered to a control group. Death rate of mice was checked every day and the growth of a tumor was measured using caliper measurement device at two or three day interval. Tumor volume was calculated by the following Formula 2. Tumor volume: mm^3=(Length×Width^2)/2 <Formula 2>\nA drug or a vehicle was injected into tail vein of a mouse two weeks after tumor transplantation.\nTumor volume was measured from the 15th day after tumor cell transplantation.", "note": "Like-named read-outs stand apart in the source and are kept apart here."}
{"smiles": "CC(=O)O[C@H]1C(=O)[C@@]2(C)[C@H]([C@H](OC(=O)c3ccccc3)[C@]3(O)C[C@H](OC(=O)[C@H](O)[C@@H](NC(=O)c4ccccc4)c4ccccc4)C(C)=C1C3(C)C)[C@]1(OC(C)=O)CO[C@@H]1C[C@@H]2O", "note": "[paclitaxel]", "values": [{"measurement": "time for which tumor growth was inhibited before regrowth", "setting": "10 mg/kg i.v., CT-26 tumor mice, FIG. 9", "result": 30, "unit": "days"}, {"measurement": "survival rate of mice", "setting": "high dose 10 mg/kg i.v. every three days four times, CT-26 tumor mice", "result": "not much different from each other"}, {"measurement": "tumor volume / anticancer activity", "setting": "high dose 10 mg/kg i.v., CT-26 tumor mice, FIG. 9", "result": "remarkably decreased"}, {"measurement": "survival rate of mice", "setting": "low dose 2 mg/kg i.v. every three days four times, CT-26 tumor mice", "result": "not much different from each other"}, {"measurement": "tumor volume / tumor growth", "setting": "low dose 2 mg/kg i.v., CT-26 tumor mice, FIG. 9", "result": "not much different between them"}, {"measurement": "weight changes of mice", "setting": "mouse, in vivo", "result": "not significantly different"}]}
